Experimental data from patent US4859664A, “Derivatives of 2,3,4,5,6,7-hexahydro-2,7-methano-1,5-benzoxazonines and -1,4-benzoxazonines, processes for their production and their use as pharmaceuticals” (priority 1986, dated 1989).

Tests used:
[1] = influencing of the amphetamine group toxicity; assay type: in vivo, male NMRI mice
Description: (§1) […]. They were given a standard feed and water ad libitum up to the commencement of the experiments.
(§2) The test compounds were administered in a volume of 10 ml./kg./body weight per mouse. As carrier, there was used physiological sodium chloride solution or a suspension of 0.5% tragacanth in physiological sodium chloride solution.
3. Influencing of the amphetamine group toxicity.
There was investigated the influence of the test compounds on the mortality of amphetamine-treated, aggregated mice. The dosaging of d-amphetamine was 15 mg./kg., which should permit the recognition not only of a synergism but also of an antagonism towards a sympathomimetic compound. Carrying out the experiment:
30 minutes after the subcutaneous administration of the test substance, the animals received subcutaneously 15 mg./kg. of d-amphetamine sulphate. The number of dead animals was recorded after 2, 4 and 7 hours. For the maintenance of the group size, the dead animals were replaced by untreated animals (6 animals/dosage group).

[2] = assay type: in vivo, male NMRI mice; conditions: ED50 p.o. / ED50 s.c.
Description: as §1, §2
(§3) The experimental results are given as average values with a mean error of the average value (x±S.E.M.). The ED50 values were calculated according to Litchfield and Wilcoxon (J. Pharmacol. Exp. Ther., 96, 99/1949). The compounds were thereby tested in 4 dosages (p≤0.5).
For the significance calculation, there was used Student's t test (see Angewandte Statistik, pub. Stringer Verlag, Berlin, Heidelberg, 242/1983), as well as the range sum test of Mann and Withney (Ann. Math. stat., 50, 1818/1947).
1.1. In the acetic acid writhing test (see R. Koster et al., Fed. proc., 18, 412/1954), the typical stretching movements referred to as "writhing", were produced by the intraperitoneal administration of a 0.6% acetic acid solution. 30 minutes previously, the substance to be tested was administered subcutaneously (s.c.) or orally ([…].) to the animals. 3 minutes after administration of the acetic acid solution, the total number of stretching movements in a period of time of 10 minutes was ascertained. From the decrease of the stretching reactions due to the action of the test compound in comparison with non-pretreated control groups, there was determined the percentage inhibition action.

[3] = assay type: in vivo, male NMRI mice; conditions: s.c. increasing dosages over 2 days, naloxone i.p.; for % of reacting animals: 10 minutes
Description: as §1, §2
2. Development of dependency.
Withdrawal jumps of the mouse (see J. K. Saelens et al., Arch. Int. Pharmacodyn. Ther., 190, 213/1971).
Mice which were dependent upon morphine or other opiates react, when treated with morphine antagonists, with a flight reaction (see F. Huidobro and C. Maggiolo, Arch. Int. Pharmacodyn. Ther., 158, 97/1965); E. L. Way et al., Science, 162, 1290/1968). This flight reaction manifests itself in very vigorous jumping reactions which continue for about 10 minutes. From the number of reacting animals and especially from the jump frequency per animal, there can be deduced the strength of the withdrawal symptoms and thus the degree of dependency upon the test compound. Carrying out of the test:
The test and standard compounds were administered subcutaneously according to the scheme shown in the following Table III in increasing dosages over the course of 2 days.
For the provocation of the withdrawal jumps, the animals received intraperitoneally, 2 hours after the last compound administration, 30 mg./kg. naloxone hydrochloride.
Immediately after the administration of the naloxone, the animals were placed individually in a 5 liter glass beaker. Subsequently, the number of jump movements was recorded during the course of 10 minutes. For evaluation, the number of animals reacting the withdrawal jumps, as well as the average number of jumps per animal, was used.
The animals of the naloxone control group were, up to the administration of naloxone, treated with a 0.9% aqueous solution of sodium chloride (6 animals/dosage group).

[4] = influencing of hexobarbital narcosis; assay type: in vivo, male NMRI mice; conditions: for period of narcosis ± SEM: hexobarbital sodium 100 mg./kg. i.p.
Description: as §1, §2, §3
4. Influencing of hexobarbital narcosis.
The test compounds were administered subcutaneously to 5 animals per dosage group. After 30 minutes, 100 mg./kg. hexobarbital sodium was administered intraperitoneally. 2 to 3 minutes after this injection, the animals allowed themselves to be laid on their backs. For each animal, there was measured the time in minutes from the commencement of the back position up to the time when the animals themselves twice successively again assumed the abdominal position.

[5] = 25 mg/kg s.c. + d-amphetamine sulphate 15 mg./kg. s.c.
[6] = 50 mg/kg s.c. + d-amphetamine sulphate 15 mg./kg. s.c.

CC12CCNCC(C1)c1ccccc1O2 (stereo not drawn) [Example 6, 2,3,4,5,6,7-hexahydro-2-methyl-2,7-methano-1,5-benzoxazonine]
% of deceased animals after 2 hrs. [1, 5]: 0% | % of deceased animals after 4 hrs. [1, 5]: 0% | % of deceased animals after 7 hrs. [1, 5]: 16.7% | % of deceased animals, total [1, 5]: 16.7% | % of deceased animals after 2 hrs. [1, 6]: 0% | % of deceased animals after 4 hrs. [1, 6]: 16.7% | % of deceased animals after 7 hrs. [1, 6]: 0% | % of deceased animals, total [1, 6]: 16.7% | quotient p.o./s.c. (of ED50) [2]: 1.65 | average number of jumps/animal/10 minutes [3]: 0 | % of reacting animals [3]: 0%

CC1NCCC2(C)CC1c1ccccc1O2 (stereo not drawn) [Example 9, 2,3,4,5,6,7-hexahydro-2,6-dimethyl-2,7-methano-1,5-benzoxazonine]
% of deceased animals after 2 hrs. [1, 5]: 16.7% | % of deceased animals after 4 hrs. [1, 5]: 0% | % of deceased animals after 7 hrs. [1, 5]: 0% | % of deceased animals, total [1, 5]: 16.7% | % of deceased animals after 2 hrs. [1, 6]: 0% | % of deceased animals after 4 hrs. [1, 6]: 0% | % of deceased animals after 7 hrs. [1, 6]: 33.3% | % of deceased animals, total [1, 6]: 33.3% | quotient p.o./s.c. (of ED50) [2]: 1.45 | average number of jumps/animal/10 minutes [3]: 0 | % of reacting animals [3]: 0% | change with regard to hexabarbital sodium ([4]; 25 mg/kg sc): -29.4 min | period of narcosis ± SEM ([4]; 25 mg/kg sc): 63 ± 21.0 min | effect on period of narcosis ([4]; 50 mg./kg.): statistically verified shortening of the period of narcosis | change with regard to hexabarbital sodium ([4]; 50 mg/kg sc): -53.4 min | period of narcosis ± SEM ([4]; 50 mg/kg sc): 39 ± 12.4 min
